The values that follow come from ChEMBL document CHEMBL1156969 (Bioorg Med Chem Lett, 2010).

Data set [1] deals with T1, Melatonin receptor type 1B (Homo sapiens) (UniProt P49286).
T1 sequence (whole entry): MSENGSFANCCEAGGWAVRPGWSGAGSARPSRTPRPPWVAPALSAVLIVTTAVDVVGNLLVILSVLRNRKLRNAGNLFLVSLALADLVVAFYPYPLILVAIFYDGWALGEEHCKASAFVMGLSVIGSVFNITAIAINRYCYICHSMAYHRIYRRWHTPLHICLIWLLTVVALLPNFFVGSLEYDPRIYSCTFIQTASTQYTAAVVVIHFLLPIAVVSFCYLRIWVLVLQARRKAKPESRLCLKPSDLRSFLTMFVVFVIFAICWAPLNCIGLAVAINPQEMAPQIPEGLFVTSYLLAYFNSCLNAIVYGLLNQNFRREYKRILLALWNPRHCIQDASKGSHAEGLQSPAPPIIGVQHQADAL
As to the kind of experiment: Agonist activity at human MT2 receptor expressed as CHO cells assessed as intracellular Ca2+ accumulation by FLIPR assay. The data set is classed as functional, cell-based.

The species named for a further data set is Homo sapiens. As to the kind of experiment: Selectivity ratio of Ki for human melatonin MT1 receptor to Ki for human melatonin MT2 receptor.
Data set [2] has as its target Melatonin receptor type 1A (Homo sapiens, UniProt P48039). As to the kind of experiment: Displacement of [3H]melatonin from human melatonin MT1 receptor expressed in CHO cells after 60 mins by scintillation counting. Format: cell-based. In general terms: Displacement assays read how much labelled ligand stays bound in the presence of the test substance.
For data set [3], the target named is T2, Melatonin receptor type 1B (Homo sapiens, UniProt P49286).
T2 sequence (P49286 whole entry): T1 sequence (whole entry)
As to the kind of experiment: Displacement of [3H]melatonin from human melatonin MT2 receptor expressed in CHO cells after 60 mins by scintillation counting. Format: cell-based.

Data set [4] in a line: Lipophilicity, log P of the compound. The data set is classed as physicochemical. The settings on record: octanol/water.

The source made the active and inactive calls. No cut-off for these calls is given here.

Sequence of Melatonin receptor type 1A (P48039 whole entry): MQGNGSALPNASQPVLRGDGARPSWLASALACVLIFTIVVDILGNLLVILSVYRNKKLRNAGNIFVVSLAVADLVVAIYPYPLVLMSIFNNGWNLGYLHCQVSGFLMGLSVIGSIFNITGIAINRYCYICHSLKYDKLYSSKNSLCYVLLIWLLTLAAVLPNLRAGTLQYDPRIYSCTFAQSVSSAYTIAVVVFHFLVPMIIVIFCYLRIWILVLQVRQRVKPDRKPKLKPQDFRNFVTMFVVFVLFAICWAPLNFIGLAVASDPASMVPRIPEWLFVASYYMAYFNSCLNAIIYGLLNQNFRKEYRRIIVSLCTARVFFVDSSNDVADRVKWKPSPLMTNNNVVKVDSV

On to `CCCC(=O)NCCCc1cc(OC)ccc1OCc1ccccc1`, for which the outcome in data set [1] was Active. Moreover, the Ratio Ki in the data set filed under Homo sapiens came to 1.14e+06. The results for the Ki in data set [2] and in data set [3] were 1170 nM and 0.00103 nM, respectively.

Turning to `CCC(=O)NCCCc1ccc(OCc2ccccc2)c(OC)c1`, the Ratio Ki in the data set listed under Homo sapiens amounted to 16.7. In addition, the inhibition constant Ki in data set [2] turned out to be 2010 nM; in data set [3], 121 nM.

For the compound `CCC(=O)NCCCc1cc(OC)ccc1OCc1ccccc1`, the result in data set [1] was Active. Also, the Ratio Ki in the data set listed under Homo sapiens stood at 473000. Also, the figures for the Ki in data set [2] and in data set [3] were 263 nM and 0.00055 nM, respectively.

As for `COc1ccc(COc2ccc(OC)cc2CCCNC(C)=O)cc1`, the Ratio Ki in the data set listed under Homo sapiens stood at 97. For the same compound, the Ki in data set [2] is 2700 nM; in data set [3], 27.9 nM.

Regarding `COc1cc(CCCNC(C)=O)ccc1OCc1ccccc1`, the Ratio Ki in the data set filed under Homo sapiens worked out at 130. For the same compound, the values for the Ki in data set [2] and in data set [3] were 8980 nM and 69.3 nM, respectively.

As to `CCCOc1ccc(OC)cc1CCCNC(C)=O`, the Ratio Ki in the data set listed under Homo sapiens was determined as 189. The Ki in data set [2] amounted to 400 nM; in data set [3] it was 2.12 nM.

Compound `COc1ccc2[nH]cc(CCNC(C)=O)c2c1` [MELATONIN] returned a logP in data set [4] of 2.16.

Regarding `COc1cccc(CCCNC(C)=O)c1`, the Ratio Ki in the data set filed under Homo sapiens is 31. Moreover, the Ki in data set [2] is 23.3 nM; in data set [3], 0.751 nM.

`COc1ccc(OCCc2ccccc2)c(CCCNC(C)=O)c1`: the Ratio Ki in the data set filed under Homo sapiens stood at 219. The Ki in data set [2] came out at 2930 nM; in data set [3], 13.4 nM.

In data set [3], `COc1ccc(OCCCc2ccccc2)c(CCCNC(C)=O)c1` yielded an inhibitory constant (Ki) of 72.2 nM.

For `COc1ccc(O)c(CCCNC(C)=O)c1`, in the data set filed under Homo sapiens, the Ratio Ki came out at 8.22. In addition, the Ki in data set [2] worked out at 379 nM; in data set [3] it was 46.2 nM.

`COc1ccc(OCc2ccccc2)c(CCCNC(=O)c2ccccc2)c1` displayed a Ki in data set [3] of 2300 nM.

`COc1cccc(COc2ccc(OC)cc2CCCNC(C)=O)c1` yielded a Ki in data set [2] of 705 nM.

Turning to `COc1cc(CCCNC(C)=O)ccc1O`, the Ratio Ki in the data set listed under Homo sapiens stood at 20.5. The inhibition constant Ki in data set [2] was determined as 257 nM; in data set [3], 12.6 nM.

As for `COc1ccc(OCc2ccc(Br)cc2F)c(CCCNC(C)=O)c1`, the affinity in data set [3] corresponds to a Ki of 102 nM.

Regarding `COc1cc(COc2ccc(OC)cc2CCCNC(C)=O)cc(OC)c1`, in data set [3], the Ki was 0.0326 nM.

Take `COc1ccc(OCc2ccccc2)c(CCCNC(C)=O)c1`: the Ratio Ki in the data set listed under Homo sapiens amounted to 18700. For the same compound, the Ki in data set [2] was 879 nM; in data set [3], 0.0471 nM.

As to `COc1ccc(OCc2ccccn2)c(CCCNC(C)=O)c1`, in the data set filed under Homo sapiens, the Ratio Ki worked out at 1150. Besides, the Ki in data set [2] stood at 1840 nM; in data set [3], 1.61 nM.

Regarding `COc1cccc(COc2ccc(CCCNC(C)=O)cc2OC)c1`, the Ratio Ki in the data set filed under Homo sapiens was 13.9. Moreover, the Ki stood at 1460 nM in data set [2] and 105 nM in data set [3].

With `COc1ccc(OC)c(CCCNC(C)=O)c1`, the Ratio Ki in the data set filed under Homo sapiens stood at 49.1. Further, the results for the inhibition constant Ki in data set [2] and in data set [3] were 1280 nM and 26.1 nM, respectively.

Consider `CCC(=O)NCCCc1cccc(OC)c1`, for which the Ratio Ki in the data set listed under Homo sapiens was 12. In addition, the values for the Ki in data set [2] and in data set [3] were 85.4 nM and 7.07 nM, respectively.

On to `CCOc1ccc(OC)cc1CCCNC(C)=O`, for which the Ratio Ki in the data set listed under Homo sapiens came out at 116. Moreover, the Ki came to 183 nM in data set [2] and 1.59 nM in data set [3].

For orientation: Ki means a dissociation constant, usually derived from enzyme kinetics or from competition with a known ligand. Low readings indicate a stronger hold on the target, high ones a looser hold on the target. A word on the logP: it is a log measure of how a compound divides between an organic and an aqueous phase.
